Experimental data from US7939509B2, “Partial and full agonists of A1 adenosine receptors” (Gilead Sciences, Inc., priority 2002, dated 2011).
“And” between values parts separate entries of the source, which are not always exact repeats. Equal values may be shown once.

Experiments:
[1] = cited from earlier work
awake rats [2] = assay: Anti-lipolytic effect: serum free fatty acids (FFA) in overnight-fasted awake rats; format: in vivo, rat
Description: All experimental procedures were performed under a protocol approved by the Institutional Animal Care and Use Committee of CV Therapeutics, Inc., and in accordance with the recommendations set forth in the Guide for the Care and Use of Laboratory Animals published by the National Research Council. Male Sprague-Dawley rats (225-250 gm) with either one or two indwelling catheters (carotid and jugular) were purchased from Charles River Laboratories (Wilmington, Mass.). Animals were housed 1 per cage in a room maintained on a 12 h light/dark cycle (light on 06.00-18.00 h) under constant temperature (22-25° C.) and with ad libitum access to food and water. The anti-lipolytic effects of Compound A were studied in awake rats. Animals were fasted overnight before experimental use. On the day of the experiment, animals were put in metabolic cages and left undisturbed to acclimate to the environment for 1-2 hrs. An infusion set (21 G×¾″, 0.8×19 mm U.T.W., 3½″, 9 cm tubing, volume 0.15 ml) was connected to the arterial catheter for blood sampling. A 1% sodium citrate saline solution was used to flush the lines. A pre-treatment blood sample was obtained from each animal to determine baseline values for FFA and TG. Compound A was given via oral gavage, sc injection, iv injection, or iv infusion, as described, for each different series of experiments. Blood samples were collected into serum separator tubes (Becton Dickinson, Franklin Lakes, N.J.) at pre-determined times, Blood was allowed to clot, and then centrifuged at 8000 rpm for 4 min at 4° C. The serum was stored at −80° C. and was thawed at 4° C. for determinations of FFA and TG contents. […] Sodium citrate and Triton WR1339 were purchased from Sigma (St. Louis, Mo.). Nicotinic acid and PEG 400 were purchased from VWR (by EMD Chemicals). Triton WR 1339 was diluted in warm saline (˜37° C.) with frequent vortexing. […] Compound A was dissolved in PEG 400, and then diluted with distilled water to make a 20% PEG drug solution. Serum FFA and TGs were measured using commercial kits from Wako Chemicals, Richmond, Va. Glucose and Insulin were measured using commercial kits from Wako Chemicals USA (Richmond, Va.). All data are reported as mean±SEM. Statistical analysis of data from experiments with 2 treatment groups was performed using the unpaired Student's t-test. Two way analysis of variance followed by Bonferroni's test was used for multiple comparisons.

awake rats [3] = assay: Insulin dose response to reduce FFA with and without Compound A in awake rats; format: in vivo, rat
Description: FIG. 6 graphically represents how Compound A potentates the effect of insulin in reducing FFA levels. Shown are the dose response curves for the effect of insulin to reduce FFA obtained in the absence and presence of Compound A (0.5 mg/kg) in awake rats. Both insulin and Compound A were given via IP injection. Each data point is the mean±SEM of the maximal (peak effect) percent decrease in FFA levels from baseline from three to five rats.
The anti-lipolytic effects of Compound A were studied in awake rats. Animals were fasted overnight before experimental use. On the day of the experiment, animals were put in metabolic cages and left undisturbed to acclimate to the environment for 1-2 hrs. An infusion set (21 G×¾″, 0.8×19 mm U.T.W., 3½″, 9 cm tubing, volume 0.15 ml) was connected to the arterial catheter for blood sampling. A 1% sodium citrate saline solution was used to flush the lines. A pre-treatment blood sample was obtained from each animal to determine baseline values for FFA and TG. Compound A was given via oral gavage, sc injection, iv injection, or iv infusion, as described, for each different series of experiments. Blood samples were collected into serum separator tubes (Becton Dickinson, Franklin Lakes, N.J.) at pre-determined times, Blood was allowed to clot, and then centrifuged at 8000 rpm for 4 min at 4° C. The serum was stored at −80° C. and was thawed at 4° C. for determinations of FFA and TG contents.
The effect of insulin (0.005-1 U/kg) to reduce serum FFA was determined in the absence and presence of a single dose (0.5 mg/kg) of Compound A (FIG. 6). Baseline FFA levels before insulin administration in vehicle and Compound A treated groups were 0.84±0.01 and 0.92±0.02 mM, respectively. […] The insulin dose response to reduce FFA levels was then repeated in the presence of Compound A (0.5 mg/kg). Compound A alone (0.5 mg/kg) caused an 18% decrease in FFA levels. The doses of insulin that cause 50% decrease (ED50) in FFA levels in the absence and presence of Compound A were 0.4 and 0.1 U/kg, respectively.

Nc1ncnc2c1ncn2[C@@H]1O[C@H](CO)[C@@H](O)[C@H]1O [adenosine]
half-life [1]: less than 10 sec

O=C(O)c1cccnc1 [nicotinic acid, reference compound]
maximal decrease in FFA levels (awake rats [2]; 10 mg/kg iv bolus): 57±5%
FFA level after treatment (awake rats [2]; 10 mg/kg iv bolus, from 0.85±0.09, p<0.001): 0.35 ± 0.01 nM
rebound increase of FFA levels (awake rats [2]; after iv bolus): seen

insulin
dose of insulin that causes 50% decrease (ED50) in FFA levels (awake rats [3]; in the absence of Compound A): 0.4 (0.3916-0.4208, 95% Cl) U/kg and 0.4 U/kg
dose of insulin that causes 50% decrease (ED50) in FFA levels (awake rats [3]; in the presence of Compound A (0.5 mg/kg IP), 0.5 mg/kg): 0.1 (0.0935-0.133) U/kg and 0.1 U/kg
lowering of FFA levels by insulin (awake rats [3]; insulin 0.005-1 U/kg IP, without Compound A): up to 67±1%
